Experimental data: patent US7470678B2, “Diphenylazetidinone derivatives for treating disorders of the lipid metabolism” (AstraZeneca AB, priority 2002, dated 2008)

Key:
Caco-2 cells = assay: Absorption in a Caco-2 cells model; format: in vitro ADME
Procedure: (§1) The absorption of the compounds of formula (I) was tested in a Caco-2 cells model (Gastroenterology 1989, 96, 736).

[1] = Absorption in a Caco-2 cells model; format: in vitro ADME; details: human, read-out: Apparent partition coefficient, Papp
Procedure: as §1

Apparent partition coefficient; Papp [cm/s] (Caco-2 cells)	absorption compared with ezetimibe (Caco-2 cells; compared with ezetimibe)	Papp [1]	SMILES
0.24 × 10^−06 cm/s	much lower absorption		O=C(O)CNC(=O)COc1ccc(C2C(SCC(O)c3ccc(F)cc3)C(=O)N2c2ccccc2)cc1 [Example 24, 3-(R)-4-(R)-1-(Phenyl)-3-[2-(4-fluorophenyl)-2-hydroxyethylsulphany[-4-{4-[N-(carboxymethyl)carbamoylmethoxy]phenyl}azetidin-2-one]
		21 ×10⁻⁶ cm/s	O=C1[C@H](CC[C@H](O)c2ccc(F)cc2)[C@@H](c2ccc(O)cc2)N1c1ccc(F)cc1 [Ezetimibe, reference compound]
